{"source": "patent US12534439B2", "about": "“Xanthohumol derivatives and methods for making and using” (Oregon State University, priority 2021, dated 2026)", "test_system": "LPS-activated RAW 264.7 cells", "experiment": "Nitric oxide (NO) assay, Griess reagent", "type": "cell-based", "conditions": "LPS 1 μg/mL, 24 hours", "protocol": "Nitric Oxide (NO) Assay. NO secreted by LPS-activated RAW 264.7 cells into the culture medium was determined as nitrite by the Griess reagent. RAW 264.7 1 cells obtained from the American Type Culture Collection (Manassas, VA, USA) were cultured in DMEM supplemented with 2 mM glutamine, antibiotics (100 U/mL penicillin and 100 μg/mL streptomycin), and 10% heat-inactivated fetal bovine serum. The cells were initially grown in 75 cm^2 culture flasks at 37° C. in a humidified incubator with 5% CO2. After reaching 80% confluency, the cells were split by seeding them on 96-well plates (0.2 mL/well) at a density of 1.5×10^5 cells/mL. After a 24-hour incubation at 37° C., the cells were treated with LPS (1 μg/mL) with or without test compounds in various concentrations. Vehicle control cells were treated with dimethyl sulfoxide alone at a final concentration of 0.1%. Culture media from control and treated cells were collected after 24 hours of incubation and were frozen at −80° C. before analysis. For the determination of NO (as […]), […], aliquots of the thawed culture media were mixed with an equal volume of Griess reagent on a 96-well plate. […] The samples were incubated for 10 minutes at room temperature and then the absorbance was read at 550 nm using a SpectraMax 190 (Molecular Devices, Sunnyvale, CA) plate reader."}
{"smiles": "COc1cc(O)c(CC=C(C)C)c(O)c1-c1cc(-c2ccc(O)cc2)on1", "note": "[isoxazole derivative, 4-(5-(4-hydroxyphenyl)isoxazol-3-yl)-5-methoxy-2-(3-methylbut-2-en-1-yl)benzene-1,3-diol]", "values": [{"measurement": "Concentration from which anti-inflammatory activity (decreased NO production) was displayed", "value": "~10", "unit": "µM"}]}
